Assay results published in PubChem BioAssay AID222 (DTP/NCI, 2004).
“And” between values parts separate entries of the source, which are not always exact repeats. Identical values can stand only once. Inconclusive results and toxic doses are left out. Rule for the calls: active = survival T/C of 150% or more; inactive = T/C below 125% in these data.

System: C57BL/6 mice, intracerebral ependymoblastoma, median survival T/C
Experiment: NCI In Vivo Anticancer Drug Screen. Data for tumor model Ependymoblastoma (intracerebral) in C57BL/6 mice
Settings: endpoint: median survival time, higher = longer survival
Protocol: The antitumor activity of compounds was measured in mice bearing transplantable tumors. Survival or tumor size were measured and the results are expressed as the measurement made in the treated group (T) divided by the measurement made in the vehicle treated control group (C). The tumor model used in this assay is Ependymoblastoma (intracerebral) in C57BL/6 mice

Measured: T/C

C1CN1c1nc(N2CC2)nc(N2CC2)n1
inactive: dose: 0.12 mg/kg/injection, schedule: Q01DX005 (ip), vehicle: saline 111 % of control | dose: 0.25 mg/kg/injection, schedule: Q01DX005 (ip), vehicle: saline 124 % of control

COC1C(O)C(C)OC(OC2C(Oc3cccc4c(O)c5c(=O)oc6ccc(C)c7c(=O)oc(c34)c5c67)OC(C)C(O)C2O)C1O (stereo unspecified)
inactive: dose: 2.0 mg/kg/injection, schedule: Q01DX005 (ip), vehicle: Klucel (hydroxypropylcellulose) (HPC) 105 % of control and 122 % of control and 124 % of control | dose: 4.0 mg/kg/injection, schedule: Q01DX005 (ip), vehicle: Klucel (hydroxypropylcellulose) (HPC) 95 % of control and 106 % of control | dose: 8.0 mg/kg/injection, schedule: Q01DX005 (ip), vehicle: Klucel (hydroxypropylcellulose) (HPC) 90 % of control and 111 % of control and 122 % of control | dose: 16.0 mg/kg/injection, schedule: Q01DX005 (ip), vehicle: Klucel (hydroxypropylcellulose) (HPC) 99 % of control and 113 % of control and 124 % of control | dose: 32.0 mg/kg/injection, schedule: Q01DX005 (ip), vehicle: Klucel (hydroxypropylcellulose) (HPC) 97 % of control and 103 % of control | dose: 64.0 mg/kg/injection, schedule: Q01DX005 (ip), vehicle: Klucel (hydroxypropylcellulose) (HPC) 99 % of control and 105 % of control and 107 % of control

OC(CBr)C(O)C(O)C(O)CBr (stereo unspecified)
inactive: dose: 8.0 mg/kg/injection, schedule: Q01DX005 (ip), vehicle: saline 101 % of control | dose: 12.0 mg/kg/injection, schedule: Q01DX005 (ip), vehicle: saline 89 % of control | dose: 18.0 mg/kg/injection, schedule: Q01DX005 (ip), vehicle: saline 100 % of control | dose: 27.0 mg/kg/injection, schedule: Q01DX005 (ip), vehicle: saline 95 % of control | dose: 32.0 mg/kg/injection, schedule: Q01DX001 (ip), vehicle: Klucel (hydroxypropylcellulose) (HPC) 108 % of control | dose: 32.0 mg/kg/injection, schedule: Q01DX001 (oral), vehicle: Klucel (hydroxypropylcellulose) (HPC) 96 % of control | dose: 32.0 mg/kg/injection, schedule: Q01DX005 (oral), vehicle: Klucel (hydroxypropylcellulose) (HPC) 97 % of control | dose: 50.0 mg/kg/injection, schedule: Q01DX005 (ip), vehicle: saline 107 % of control | dose: 60.0 mg/kg/injection, schedule: Q01DX005 (ip), vehicle: saline 116 % of control | dose: 64.0 mg/kg/injection, schedule: Q01DX001 (ip), vehicle: Klucel (hydroxypropylcellulose) (HPC) 111 % of control | dose: 64.0 mg/kg/injection, schedule: Q01DX001 (oral), vehicle: Klucel (hydroxypropylcellulose) (HPC) 99 % of control | dose: 64.0 mg/kg/injection, schedule: Q01DX005 (oral), vehicle: Klucel (hydroxypropylcellulose) (HPC) 102 % of control | dose: 100.0 mg/kg/injection, schedule: Q01DX001 (ip), vehicle: Klucel (hydroxypropylcellulose) (HPC) 103 % of control | dose: 100.0 mg/kg/injection, schedule: Q01DX005 (ip), vehicle: saline 92 % of control and 120 % of control | dose: 100.0 mg/kg/injection, schedule: Q#A X002 (ip), vehicle: Klucel (hydroxypropylcellulose) (HPC) 102 % of control | dose: 128.0 mg/kg/injection, schedule: Q01DX001 (ip), vehicle: Klucel (hydroxypropylcellulose) (HPC) 109 % of control | dose: 128.0 mg/kg/injection, schedule: Q01DX001 (oral), vehicle: Klucel (hydroxypropylcellulose) (HPC) 100 % of control | dose: 200.0 mg/kg/injection, schedule: Q01DX001 (ip), vehicle: Klucel (hydroxypropylcellulose) (HPC) 102 % of control and 112 % of control and 115 % of control | dose: 200.0 mg/kg/injection, schedule: Q01DX005 (ip), vehicle: saline 96 % of control and 107 % of control | dose: 200.0 mg/kg/injection, schedule: Q#A X002 (ip), vehicle: Klucel (hydroxypropylcellulose) (HPC) 102 % of control and 106 % of control | dose: 256.0 mg/kg/injection, schedule: Q01DX001 (ip), vehicle: Klucel (hydroxypropylcellulose) (HPC) 122 % of control | dose: 256.0 mg/kg/injection, schedule: Q01DX001 (oral), vehicle: Klucel (hydroxypropylcellulose) (HPC) 101 % of control | dose: 400.0 mg/kg/injection, schedule: Q01DX001 (ip), vehicle: Klucel (hydroxypropylcellulose) (HPC) 105 % of control and 106 % of control | dose: 400.0 mg/kg/injection, schedule: Q#A X002 (ip), vehicle: Klucel (hydroxypropylcellulose) (HPC) 111 % of control | dose: 512.0 mg/kg/injection, schedule: Q01DX001 (ip), vehicle: Klucel (hydroxypropylcellulose) (HPC) 96 % of control | dose: 512.0 mg/kg/injection, schedule: Q01DX001 (oral), vehicle: Klucel (hydroxypropylcellulose) (HPC) 100 % of control | dose: 1024.0 mg/kg/injection, schedule: Q01DX001 (ip), vehicle: Klucel (hydroxypropylcellulose) (HPC) 96 % of control | dose: 1024.0 mg/kg/injection, schedule: Q01DX001 (oral), vehicle: Klucel (hydroxypropylcellulose) (HPC) 100 % of control
